Source: US20090311217A1, “3-SUBSTITUTED-1H-INDOLE COMPOUNDS, THEIR USE AS MTOR KINASE AND PI3 KINASE INHIBITORS, AND THEIR SYNTHESES” (priority 2008, published 2009)

Experiments:
PI3K-alpha = PI3K-alpha (Homo sapiens, UniProt P42336); test: PI3K-alpha fluorescence polarization assay; assay type: biochemical; details: read-out: PI3Kα Avg. IC50
PI3K-gamma = PI3K-gamma (Homo sapiens, UniProt P48736); test: PI3K-gamma fluorescence polarization assay; assay type: biochemical; details: PI3Kγ Avg. IC50
Sequence of PI3K-gamma (P48736 whole entry, species assumed): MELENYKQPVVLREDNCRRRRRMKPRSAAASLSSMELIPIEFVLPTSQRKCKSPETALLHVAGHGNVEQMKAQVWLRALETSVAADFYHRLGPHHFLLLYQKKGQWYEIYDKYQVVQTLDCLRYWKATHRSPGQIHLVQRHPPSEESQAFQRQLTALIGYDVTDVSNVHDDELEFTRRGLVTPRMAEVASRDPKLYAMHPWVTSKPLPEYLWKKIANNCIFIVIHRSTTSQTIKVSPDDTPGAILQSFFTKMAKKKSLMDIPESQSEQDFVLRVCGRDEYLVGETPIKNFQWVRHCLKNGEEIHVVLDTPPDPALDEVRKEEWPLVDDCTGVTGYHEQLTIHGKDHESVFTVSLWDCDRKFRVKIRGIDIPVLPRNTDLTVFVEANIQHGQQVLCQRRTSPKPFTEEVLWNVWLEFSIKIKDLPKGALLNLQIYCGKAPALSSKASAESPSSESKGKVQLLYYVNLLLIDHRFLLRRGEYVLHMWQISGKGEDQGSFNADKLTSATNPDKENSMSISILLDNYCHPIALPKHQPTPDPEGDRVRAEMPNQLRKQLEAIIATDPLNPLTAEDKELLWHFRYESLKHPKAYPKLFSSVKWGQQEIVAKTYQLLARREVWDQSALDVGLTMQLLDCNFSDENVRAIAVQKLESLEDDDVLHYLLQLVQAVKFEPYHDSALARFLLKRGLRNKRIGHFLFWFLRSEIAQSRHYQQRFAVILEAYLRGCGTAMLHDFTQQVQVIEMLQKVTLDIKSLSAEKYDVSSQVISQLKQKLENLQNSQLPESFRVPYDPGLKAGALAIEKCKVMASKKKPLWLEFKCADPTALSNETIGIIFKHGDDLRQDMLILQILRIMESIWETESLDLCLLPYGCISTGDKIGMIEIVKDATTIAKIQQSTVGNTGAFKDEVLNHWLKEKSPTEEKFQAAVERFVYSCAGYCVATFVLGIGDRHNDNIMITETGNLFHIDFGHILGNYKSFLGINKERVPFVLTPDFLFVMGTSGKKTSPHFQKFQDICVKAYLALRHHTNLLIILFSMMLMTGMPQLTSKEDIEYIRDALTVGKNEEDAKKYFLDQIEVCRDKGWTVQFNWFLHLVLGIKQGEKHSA
Procedure: PI3K-Alpha, PI3K-Beta, PI3K-Gamma, and PI3K-delta Fluorescence Polarization Assay Protocols
PI3-Kinase reactions were performed in 5 mM HEPES, pH 7, 2.5 mM MgCl2, and 25 μM ATP, with diC8-PI(4,5)P2 (Echelon, Salt Lake City Utah) as substrate. Nunc 384-well black polypropylene fluorescent plates were used for PI3K assays. Reactions were quenched by the addition of EDTA to a final concentration of 10 mM. Final reaction volumes were 10 μl. For evaluation of PI3K inhibitors, 5 ng of enzyme (PI3K-alpha, beta, gamma, or delta) and 2.5 μM of substrate was used per […] reaction volume, and inhibitor concentrations ranged from 100 μM to 20 μM; the final level of DMSO in reactions never exceeded 2%. Reactions were allowed to proceed for one hour at 25° C. After 1 hour, GST-tagged GRP1 (general receptor for phosphoinositides) PH domain fusion protein was added to a final concentration of 100 nM, and BODIPY-TMRI(1,3,4,5)P4 (Echelon) was also added to a final concentration of 5 nM. Final sample volumes were 25 μl with a final DMSO concentration of 0.8%. Assay Plates were read on Perkin-Elmer Envision plate readers with appropriate filters for Tamra [BODIPY-TMRI(1,3,4,5)P4]. Data obtained were used to calculate enzymatic activity and enzyme inhibition by inhibitor compounds.

Sequence of PI3K-alpha (P42336 whole entry, species assumed): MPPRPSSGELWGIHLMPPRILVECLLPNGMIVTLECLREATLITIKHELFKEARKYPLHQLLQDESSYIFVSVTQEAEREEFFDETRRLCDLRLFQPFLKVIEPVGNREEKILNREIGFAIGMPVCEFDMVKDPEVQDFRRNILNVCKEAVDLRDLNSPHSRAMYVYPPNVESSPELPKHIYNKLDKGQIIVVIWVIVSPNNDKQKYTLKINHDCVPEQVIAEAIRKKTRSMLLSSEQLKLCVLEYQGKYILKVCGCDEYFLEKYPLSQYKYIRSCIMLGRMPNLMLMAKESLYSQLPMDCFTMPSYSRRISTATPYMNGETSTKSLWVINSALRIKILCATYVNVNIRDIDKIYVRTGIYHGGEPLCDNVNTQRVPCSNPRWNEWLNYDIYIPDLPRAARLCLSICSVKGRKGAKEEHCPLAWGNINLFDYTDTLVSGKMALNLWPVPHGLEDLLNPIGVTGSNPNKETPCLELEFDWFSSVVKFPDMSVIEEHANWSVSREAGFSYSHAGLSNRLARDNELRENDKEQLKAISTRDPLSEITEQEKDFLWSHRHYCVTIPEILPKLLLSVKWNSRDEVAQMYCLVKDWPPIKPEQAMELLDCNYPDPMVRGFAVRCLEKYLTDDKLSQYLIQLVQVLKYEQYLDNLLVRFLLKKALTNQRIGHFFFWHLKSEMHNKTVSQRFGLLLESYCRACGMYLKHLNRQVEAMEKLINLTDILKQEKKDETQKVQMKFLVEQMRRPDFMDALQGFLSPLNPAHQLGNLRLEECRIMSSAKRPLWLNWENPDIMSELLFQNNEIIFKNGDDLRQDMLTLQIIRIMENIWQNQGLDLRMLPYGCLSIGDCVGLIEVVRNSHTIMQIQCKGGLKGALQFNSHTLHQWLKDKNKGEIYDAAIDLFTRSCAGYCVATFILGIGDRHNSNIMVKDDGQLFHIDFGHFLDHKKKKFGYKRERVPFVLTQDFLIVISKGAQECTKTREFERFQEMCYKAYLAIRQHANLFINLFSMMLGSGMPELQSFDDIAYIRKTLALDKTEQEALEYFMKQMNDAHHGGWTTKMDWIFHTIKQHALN
Sequence of PI3K-alpha (P27986 whole entry partner, species assumed): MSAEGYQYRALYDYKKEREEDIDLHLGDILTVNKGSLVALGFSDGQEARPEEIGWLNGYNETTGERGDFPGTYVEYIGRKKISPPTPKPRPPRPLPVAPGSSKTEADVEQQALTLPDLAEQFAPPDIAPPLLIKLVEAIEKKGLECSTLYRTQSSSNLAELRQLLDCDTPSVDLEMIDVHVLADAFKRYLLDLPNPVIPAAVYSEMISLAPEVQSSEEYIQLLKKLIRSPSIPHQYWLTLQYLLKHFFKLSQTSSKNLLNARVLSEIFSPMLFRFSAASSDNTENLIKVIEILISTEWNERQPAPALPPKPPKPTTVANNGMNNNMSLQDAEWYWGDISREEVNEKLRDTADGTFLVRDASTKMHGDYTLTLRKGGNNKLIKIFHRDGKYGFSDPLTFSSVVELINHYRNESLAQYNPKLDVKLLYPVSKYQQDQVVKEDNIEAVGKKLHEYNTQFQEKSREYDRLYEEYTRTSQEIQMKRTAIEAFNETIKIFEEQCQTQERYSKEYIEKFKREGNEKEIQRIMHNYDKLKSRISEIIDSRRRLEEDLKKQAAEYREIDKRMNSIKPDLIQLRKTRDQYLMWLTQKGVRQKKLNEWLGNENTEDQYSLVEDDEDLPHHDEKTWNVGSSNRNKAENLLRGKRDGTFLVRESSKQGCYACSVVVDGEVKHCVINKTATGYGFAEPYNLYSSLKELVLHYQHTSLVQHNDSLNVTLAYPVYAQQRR

| IC50 (PI3K-alpha) [nM] | IC50 (PI3K-gamma) [nM] | SMILES |
| --- | --- | --- |
| 2990 | 3810 | Cn1cc(/C=C2\Oc3ccc(Br)cc3C2=O)c2c(-c3ccccc3)cccc21 [Compound 527, (2Z)-5-bromo-2-[(1-methyl-4-phenyl-1H-indol-3-yl)methylene]-1-benzofuran-3(2H)-one] |
| 6.5 | 102 | CNC(=O)Nc1ccc2c(c1)C(=O)/C(=C/c1c(C(=O)NC)[nH]c3ccc(OC)cc13)O2 [Compound 603, 5-methoxy-N-methyl-3-[(Z)-{5-[(methylcarbamoyl)amino]-3-oxo-1-benzofuran-2(3H)-ylidene}methyl]-1H-indole-2-carboxamide] |
| 11 | 138 | CNC(=O)Nc1ccc2c(c1)C(=O)/C(=C/c1c(C)n(CCCN3CCOCC3)c3ccc(OC)cc13)O2 [Compound 585, 1-[(2Z)-2-{[5-methoxy-2-methyl-1-(3-morpholin-4-ylpropyl)-1H-indol-3-yl]methylene}-3-oxo-2,3-dihydro-1-benzofuran-5-yl]-3-methylurea] |
| 9.5 | 136 | CNC(=O)Nc1ccc2c(c1)C(=O)/C(=C/c1c(CN3CCN(C)CC3)[nH]c3ccc(OC)cc13)O2 [Compound 615, 1-[(2Z)-2-({5-methoxy-2-[(4-methylpiperazin-1-yl)methyl]-1H-indol-3-yl}methylidene)-3-oxo-2,3-dihydro-1-benzofuran-5-yl]-3-methylurea] |
| 355 | > 10000 | COc1ccc2c(c1)c(/C=C1\Oc3ccc(NC(=O)NC4CNC4)cc3C1=O)cn2CCN1CCN(C)CC1 [Compound 552, 1-azetidin-3-yl-3-[(2Z)-2-({5-methoxy-1-[2-(4-methylpiperazin-1-yl)ethyl]-1Hindol-3-yl}methylene)-3-oxo-2,3-dihydro-1-benzofuran-5-yl]urea] |
| > 10000 | > 10000 | CCc1cc(OC)cc2c(/C=C3\Oc4cccc(O)c4C3=O)cn(CCCC#N)c12 [Compound 475, 4-{7-ethyl-3-[(Z)-(4-hydroxy-3-oxo-1-benzofuran-2(3H)-ylidene)methyl]-5-methoxy-1H-indol-1-yl}butanenitrile] |
| 6220 | > 10000 | CCNC(=O)Nc1ccc2c(c1)C(=O)/C(=C/c1c[nH]c3ccc(OC)cc13)O2 [Compound 489, 1-ethyl-3-{(2Z)-2-[(5-methoxy-1H-indol-3-yl)methylene]-3-oxo-2,3-dihydro-1-benzofuran-5-yl}urea] |
| 36.5 | 1400 | CCc1cc(OC)cc2c(/C=C3\Oc4cc(O)cc(O)c4C3=O)cn(CCN3CCN(C)CC3)c12 [Compound 512, (2Z)-2-({7-ethyl-5-methoxy-1-[2-(4-methylpiperazin-1-yl)ethyl]-1H-indol-3-yl}methylene)-4,6-dihydroxy-1-benzofuran-3(2H)-one] |
| 10200 | > 10000 | CCCCNC(=O)Nc1ccc2c(c1)C(=O)/C(=C/c1c[nH]c3ccc(OC)cc13)O2 [Compound 487, 1-butyl-3-{(2Z)-2-[(5-methoxy-1H-indol-3-yl)methylene]-3-oxo-2,3-dihydro-1-benzofuran-5-yl}urea] |
| 30.8 | 417 | CNC(=O)Nc1ccc2c(c1)C(=O)/C(=C/c1c(C)n(CCCn3ccnc3)c3ccc(OC)cc13)O2 [Compound 598, 1-[(2Z)-2-({1-[3-(1H-imidazol-1-yl)propyl]-5-methoxy-2-methyl-1H-indol-3-yl}methylidene)-3-oxo-2,3-dihydro-1-benzofuran-5-yl]-3-methylurea] |
| 8410 | 6490 | CNC(=O)Nc1ccc2c(c1)C(=O)/C(=C/c1c[nH]c3c(CN4CCOCC4)cc(OC)cc13)O2 [Compound 570, 1-[(2Z)-2-{[5-methoxy-7-(morpholin-4-ylmethyl)-1H-indol-3-yl]methylene}-3-oxo-2,3-dihydro-1-benzofuran-5-yl]-3-methylurea] |
| 192 | 3150 | COc1ccc2c(c1)c(/C=C1\Oc3ccc(NC(N)=O)cc3C1=O)cn2CCN1CCN(C)CC1 [Compound 551, 1-[(2Z)-2-({5-methoxy-1-[2-(4-methylpiperazin-1-yl)ethyl]-1H-indol-3-yl}methylene)-3-oxo-2,3-dihydro-1-benzofuran-5-yl]urea] |
